From patent US20100130604A1, “USE OF ROSMARINIC ACID IN MANUFACTURE OF MEDICAMENTS FOR TREATING OR PREVENTING HEPATIC AND RENAL DISEASES” (SHANGDONG LUYE NATURAL DRUG RESEARCH AND DEVELOPMENT CO., …, priority 2006, published 2010)
Marks after values point to notes of the source that are not given here.

What was measured:
[1] = test system: hepatofibrosis in rats; experiment: CCl4-induced hepatofibrosis in chronic hepatitis in rats; format: in vivo, Sprague Dawley rats; conditions: for T (Rank-sum test of fibrosis) / fiber proliferation level 0 (number of rats) / fiber proliferation level I (number of rats) / fiber proliferation level II (number of rats) / fiber proliferation level III (number of rats) / fiber proliferation level IV (number of rats) / HYP / HA / LN / PCIII: 6 weeks; for fiber proliferation level 0 (number of rats) / fiber proliferation level I (number of rats) / fiber proliferation level II (number of rats) / fiber proliferation level III (number of rats) / fiber proliferation level IV (number of rats): n=10; for HYP: hepatic; for HA / LN / PCIII: serum
Description: 120 rats were randomly divided into 12 groups, with 10 in each group, namely, a normal control group, a model group, […] Apart from the normal control group, all rats were s.c. injected 0.3 ml of 40% solution of CC14 in oil per 100 g of body weight once every 3 days for 6 weeks. Animals in the normal control group were s.c. injected 0.3 ml/100 g body weight of oil vehicle following the same schedule as the experimental groups. First dose was doubled for all animals. Six weeks later, drugs were continuously administered to animals in each group for 6 weeks. After the administration was completed, all animals were anaesthetised with i.p. injection of 20% ethyl carbamate solution (Beijing Tongxian District Yucai Fine Chemicals). Blood was collected from abdominal aorta. Hepatic lobule tissue was removed, part of which was fixed with 10% neutral foinialin solution and made into wax blocks within 24-48 hours. […] Serum HA, LN, Pc III levels and hepatic HYP level were determined according to the respective kit instructions.

[2] = test system: renal interstitial fibrosis in rats; experiment: Renal interstitial fibrosis in rats with unilateral urethral obstruction; format: in vivo, Sprague Dawley rats; conditions: for HYP: left kidney; for HYP / FN: day 10; for FN: serum
Description: 130 rats were randomly divided into 13 groups, namely, a sham operation group, a model group, benazapril p.o. Group at 10 mg/kg, RA i.v. groups at 2.5 mg/kg, 5 mg/kg, 25 mg/kg, 75 mg/kg, and 150 mg/kg of RA, and RA p.o. groups at 2.5 mg/kg, 5 mg/kg, 25 mg/kg, 150 mg/kg, and 300 mg/kg of RA. The animals were acclimated for a week before they were all anaesthetised with an i.p. dose of 10% chloral hydrate at 3.0mL/kg and placed on the operating table in right lateral position. The rats were shaved and the operating area was disinfected using iodine tincture and 75% ethanol. The left urethra was exposed and isolated after a left lateral incision was made on the abdominal area and skin, muscles and all other layers of the abdominal wall were incised sequentially. In the sham group, the left urethra was only isolated without being ligated or cut off. In all other animals, the left urethra was ligated with No. 4 suture and obstructed followed by closure of the abdominal wall layer by layer. The animals were anaesthetised again with 10% chloral hydrate 10 days later, blood was collected and serum was separated to determine FN levels. The left kidney was removed after thorough rinsing and then fixed in 4% paraformaldehyde buffer. HYP level was determined according to instructions provided with the kit.

[3] = i.v. 2.5, 5, 25, 75, 150 mg/kg, p.o. 5, 25, 150, 300 mg/kg, p<0.05 or 0.01

## O=C(/C=C/c1ccc(O)c(O)c1)O[C@H](Cc1ccc(O)c(O)c1)C(=O)O [RA, R(+)2-{[3-(3,4-dihydroxylphenyl-(oxo-2-propenyl)oxy]3,4-dihydroxylphenylpropionic acid]}]
[1]; RA i.v. 2.5 mg/kg
  T (Rank-sum test of fibrosis): 82*
  fiber proliferation level 0 (number of rats): 0
  fiber proliferation level I (number of rats): 1
  fiber proliferation level II (number of rats): 2
  fiber proliferation level III (number of rats): 3
  fiber proliferation level IV (number of rats): 4
[1]; RA i.v. 5 mg/kg
  T (Rank-sum test of fibrosis): 81.5*
  fiber proliferation level 0 (number of rats): 0
  fiber proliferation level I (number of rats): 1
  fiber proliferation level II (number of rats): 2
  fiber proliferation level III (number of rats): 6
  fiber proliferation level IV (number of rats): 1
[1]; RA i.v. 25 mg/kg
  T (Rank-sum test of fibrosis): 76*
  fiber proliferation level 0 (number of rats): 0
  fiber proliferation level I (number of rats): 2
  fiber proliferation level II (number of rats): 3
  fiber proliferation level III (number of rats): 4
  fiber proliferation level IV (number of rats): 1
[1]; RA i.v. 75 mg/kg
  T (Rank-sum test of fibrosis): 71**
  fiber proliferation level 0 (number of rats): 0
  fiber proliferation level I (number of rats): 3
  fiber proliferation level II (number of rats): 2
  fiber proliferation level III (number of rats): 5
  fiber proliferation level IV (number of rats): 0
[1]; RA i.v. 150 mg/kg
  T (Rank-sum test of fibrosis): 66**
  fiber proliferation level 0 (number of rats): 0
  fiber proliferation level I (number of rats): 3
  fiber proliferation level II (number of rats): 4
  fiber proliferation level III (number of rats): 3
  fiber proliferation level IV (number of rats): 0
[1]; RA p.o. 2.5 mg/kg
  T (Rank-sum test of fibrosis): 95
  fiber proliferation level 0 (number of rats): 0
  fiber proliferation level I (number of rats): 1
  fiber proliferation level II (number of rats): 2
  fiber proliferation level III (number of rats): 3
  fiber proliferation level IV (number of rats): 4
[1]; RA p.o. 5 mg/kg
  T (Rank-sum test of fibrosis): 77*
  fiber proliferation level 0 (number of rats): 0
  fiber proliferation level I (number of rats): 1
  fiber proliferation level II (number of rats): 2
  fiber proliferation level III (number of rats): 7
  fiber proliferation level IV (number of rats): 0
[1]; RA p.o. 25 mg/kg
  T (Rank-sum test of fibrosis): 71**
  fiber proliferation level 0 (number of rats): 0
  fiber proliferation level I (number of rats): 3
  fiber proliferation level II (number of rats): 2
  fiber proliferation level III (number of rats): 5
  fiber proliferation level IV (number of rats): 0
[1]; RA p.o. 150 mg/kg
  T (Rank-sum test of fibrosis): 66**
  fiber proliferation level 0 (number of rats): 0
  fiber proliferation level I (number of rats): 3
  fiber proliferation level II (number of rats): 4
  fiber proliferation level III (number of rats): 3
  fiber proliferation level IV (number of rats): 0
[1]; RA p.o. 300 mg/kg
  T (Rank-sum test of fibrosis): 66**
  fiber proliferation level 0 (number of rats): 0
  fiber proliferation level I (number of rats): 2
  fiber proliferation level II (number of rats): 5
  fiber proliferation level III (number of rats): 2
  fiber proliferation level IV (number of rats): 1
[1]; RA treated groups
  liver, electronic microscopic examination: hepatocyte damages were alleviated
  liver, light microscopic examination (HE, VG collagen staining): less fiber connective tissue hyperplasia, thinner fibrous septa and less pseudolobule formation
[1]; all RA treated groups vs model group
  liver fibrosis, pathology examination: less severe fibrosis
[1]; i.v. 2.5 mg/kg
  HYP: 1657 ± 124 µg/L
  HA: 111.2 ± 24.1 µg/L
  LN: 72.6 ± 19.0 µg/L
  PCIII: 36.2 ± 7.8 µg/L
[1]; i.v. 5 mg/kg
  HYP: 1630 ± 110 µg/L
  HA: 106.3 ± 23.4 µg/L
  LN: 68.3 ± 17.9 µg/L
  PCIII: 34.2 ± 7.6 µg/L
[1]; i.v. 25 mg/kg
  HYP: 1578 ± 113 µg/L
  HA: 97.5 ± 23.6 µg/L
  LN: 62.0 ± 20.0 µg/L
  PCIII: 31.4 ± 7.8 µg/L
[1]; i.v. 75 mg/kg
  HYP: 1278 ± 121 µg/L
  HA: 77.9 ± 20.7 µg/L
  LN: 57.6 ± 16.8 µg/L
  PCIII: 26.5 ± 9.1 µg/L
[1]; i.v. 150 mg/kg
  HYP: 1217 ± 143 µg/L
  HA: 74.6 ± 18.9 µg/L
  LN: 55.3 ± 14.6 µg/L
  PCIII: 25.7 ± 7.8 µg/L
[1]; p.o. 2.5 mg/kg
  HYP: 1724 ± 121 µg/L
  HA: 113.8 ± 24.8 µg/L
  LN: 79.1 ± 19.4 µg/L
  PCIII: 38.0 ± 7.5 µg/L
[1]; p.o. 5 mg/kg
  HYP: 1614 ± 121 µg/L
  HA: 104.3 ± 26.4 µg/L
  LN: 69.3 ± 16.9 µg/L
  PCIII: 33.7 ± 7.3 µg/L
[1]; p.o. 25 mg/kg
  HYP: 1535 ± 125 µg/L
  HA: 97.0 ± 24.6 µg/L
  LN: 61.0 ± 20.6 µg/L
  PCIII: 31.6 ± 7.2 µg/L
[1]; p.o. 150 mg/kg
  HYP: 1299 ± 153 µg/L
  HA: 84.9 ± 20.5 µg/L
  LN: 59.6 ± 16.8 µg/L
  PCIII: 27.5 ± 9.6 µg/L
[1]; p.o. 300 mg/kg
  HYP: 1250 ± 174 µg/L
  HA: 80.7 ± 18.6 µg/L
  LN: 57.3 ± 18.6 µg/L
  PCIII: 26.9 ± 10.5 µg/L
[1]; i.v. 2.5, 5, 25, 75, 150 mg/kg, p.o. 5, 25, 150, 300 mg/kg
  fibrosis (Rank-sum test): can significantly reduce fibrosis
[1]; [3]
  HA, LN, Pc III and HYP levels vs model group: can all significantly reduce HA, LN, Pc III, and HYP levels
[2]; RA treated animals vs model group
  kidney lesions, light microscopic examination: improvement of various degrees in lesions
[2]; [3]
  FN and HYP levels vs model group: can all significantly reduce FN and HYP levels
[2]; i.v. 2.5 mg/kg
  HYP: 612 ± 102 µg/g
  FN: 22.7 ± 6.0 mg/L
[2]; i.v. 5 mg/kg
  HYP: 605 ± 118 µg/g
  FN: 19.9 ± 6.3 mg/L
[2]; i.v. 25 mg/kg
  HYP: 573 ± 98 µg/g
  FN: 17.7 ± 6.2 mg/L
[2]; i.v. 75 mg/kg
  HYP: 533 ± 94 µg/g
  FN: 16.5 ± 4.3 mg/L
[2]; i.v. 150 mg/kg
  HYP: 526 ± 121 µg/g
  FN: 16.4 ± 4.4 mg/L
[2]; p.o. 2.5 mg/kg
  HYP: 705 ± 162 µg/g
  FN: 22.4 ± 6.5 mg/L
[2]; p.o. 5 mg/kg
  HYP: 612 ± 118 µg/g
  FN: 19.8 ± 6.2 mg/L
[2]; p.o. 25 mg/kg
  HYP: 573 ± 98 µg/g
  FN: 17.5 ± 6.3 mg/L
[2]; p.o. 150 mg/kg
  HYP: 563 ± 94 µg/g
  FN: 17.2 ± 4.3 mg/L
[2]; p.o. 300 mg/kg
  HYP: 556 ± 121 µg/g
  FN: 17.2 ± 4.4 mg/L
